Data as given in ChEMBL document CHEMBL3593203, “The twin drug approach for novel nicotinic acetylcholine receptor ligands” (Bioorg Med Chem, 2015).

Experiments:
Mus musculus [1] = experiment: Antinociceptive activity in ip dosed mouse administered 30 mins prior to testing by hot plate test; assay type: functional
[2] = target: T1, Neuronal acetylcholine receptor; alpha4/beta2 (Rattus norvegicus, UniProt P09483+P12390); experiment: Displacement of [3H]-epibatidine from Sprague-Dawley rat brain alpha4beta2 nicotine acetylcholine receptor after 90 mins by radioligand displacement assay
T1 sequence (P09483 whole entry): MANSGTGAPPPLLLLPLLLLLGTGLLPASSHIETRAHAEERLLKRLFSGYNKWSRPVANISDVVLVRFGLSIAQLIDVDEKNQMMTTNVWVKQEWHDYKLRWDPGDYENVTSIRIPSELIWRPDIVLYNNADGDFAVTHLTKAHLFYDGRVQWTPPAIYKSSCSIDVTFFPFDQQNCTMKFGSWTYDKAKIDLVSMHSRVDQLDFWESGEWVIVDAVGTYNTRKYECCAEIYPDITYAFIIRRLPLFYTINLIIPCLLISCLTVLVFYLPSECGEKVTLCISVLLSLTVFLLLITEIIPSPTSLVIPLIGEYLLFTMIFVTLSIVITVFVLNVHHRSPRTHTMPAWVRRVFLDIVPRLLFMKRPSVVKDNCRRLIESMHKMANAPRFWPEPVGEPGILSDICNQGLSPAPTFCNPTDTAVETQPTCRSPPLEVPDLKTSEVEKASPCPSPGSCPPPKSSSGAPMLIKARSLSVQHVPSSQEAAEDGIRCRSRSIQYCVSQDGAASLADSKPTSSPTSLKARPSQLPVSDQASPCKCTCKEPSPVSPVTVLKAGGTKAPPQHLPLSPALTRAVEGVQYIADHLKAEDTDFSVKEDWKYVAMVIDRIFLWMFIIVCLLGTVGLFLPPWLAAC
T1 sequence (P12390 whole entry): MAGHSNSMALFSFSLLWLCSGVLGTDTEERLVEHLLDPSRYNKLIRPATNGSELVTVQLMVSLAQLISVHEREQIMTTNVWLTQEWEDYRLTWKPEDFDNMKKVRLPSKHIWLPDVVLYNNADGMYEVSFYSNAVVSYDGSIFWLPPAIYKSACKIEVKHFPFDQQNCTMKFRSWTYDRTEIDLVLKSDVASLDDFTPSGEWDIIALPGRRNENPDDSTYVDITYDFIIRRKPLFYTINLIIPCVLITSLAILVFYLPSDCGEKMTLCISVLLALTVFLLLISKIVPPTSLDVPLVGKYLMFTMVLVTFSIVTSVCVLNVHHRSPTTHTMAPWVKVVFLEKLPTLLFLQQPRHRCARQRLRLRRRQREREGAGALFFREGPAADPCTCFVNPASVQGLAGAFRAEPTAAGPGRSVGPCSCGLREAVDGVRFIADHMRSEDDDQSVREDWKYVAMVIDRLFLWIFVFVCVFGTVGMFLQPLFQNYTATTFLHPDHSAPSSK

[3] = target: T2, Neuronal acetylcholine receptor subunit alpha-7 (Rattus norvegicus, UniProt Q05941); experiment: Displacement of [3H]-MLA from Sprague-Dawley rat brain alpha7 nicotine acetylcholine receptor after 90 mins by radioligand displacement assay
T2 sequence (Q05941 whole entry): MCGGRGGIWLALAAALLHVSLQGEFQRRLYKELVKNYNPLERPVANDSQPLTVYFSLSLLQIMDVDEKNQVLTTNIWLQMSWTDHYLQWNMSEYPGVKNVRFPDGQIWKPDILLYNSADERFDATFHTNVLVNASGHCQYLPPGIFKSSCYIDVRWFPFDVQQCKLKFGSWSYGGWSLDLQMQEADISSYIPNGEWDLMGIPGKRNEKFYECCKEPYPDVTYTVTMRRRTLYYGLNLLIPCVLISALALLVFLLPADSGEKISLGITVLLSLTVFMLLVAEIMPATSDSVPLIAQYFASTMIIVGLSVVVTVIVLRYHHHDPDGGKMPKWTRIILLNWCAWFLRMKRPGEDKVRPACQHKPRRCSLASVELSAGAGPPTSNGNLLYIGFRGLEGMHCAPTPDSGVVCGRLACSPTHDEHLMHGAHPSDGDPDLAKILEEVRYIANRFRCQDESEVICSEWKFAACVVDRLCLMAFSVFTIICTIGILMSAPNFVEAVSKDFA

[4] = Displacement of Torpedo californica electroplax muscle type (alpha1)2beta1gammadelta nicotine acetylcholine receptor (unknown origin) after 90 mins by radioligand displacement assay; parameters: species or system Tetronarce californica
[5] = target: T1, Neuronal acetylcholine receptor; alpha4/beta2; experiment: Displacement of [3H]-nicotine from alpha4beta2 nicotine acetylcholine receptor in rat brain membranes after 90 mins by liquid scintillation spectrometric analysis; assay type: cell membranes, Membrane
Mus musculus [6] = experiment: Antinociceptive activity in sc dosed ICR mouse administered 5 mins prior to testing by tail-flick method; assay type: functional
[7] = target: T2, Neuronal acetylcholine receptor subunit alpha-7; experiment: Displacement of [3H]-MLA from alpha7 nicotine acetylcholine receptor in rat brain minus cerebellum after 60 mins by scintillation counting analysis; assay type: tissue-based

Row | SMILES | Ki [2] [nM] | Ki [3] [nM] | other results
1 | c1cncc(N2CC3CNCC(C3)C2)c1 |  |  | MED (Mus musculus [1]): 1.9 µmol/kg
2 | CN(C)CCOc1cncc(-c2cncc(OCCN(C)C)c2)c1 | 290 | > 1000 | Ki [4]: 905 nM
3 | CN(C)CCOc1cncc(N2CC3CNCC(C3)C2)c1 | 0.188 | > 1000 | Ki [4]: > 1000 nM
4 | CN(C)CCOc1cc(F)cc(N2CC3CNCC(C3)C2)c1 | 186 | > 1000 | Ki [4]: > 1000 nM
5 | CN(C)CCOc1cncc(N2CCCNCC2)c1 | 6.9 | > 1000 | Ki [4]: > 1000 nM
6 | CN(C)CCOc1cc(F)cc(N2CCCNCC2)c1 | > 1000 |  | 
7 | CN(C)CCOc1cc(N2CCCNCC2)cc(F)c1F | > 1000 |  | 
8 | CN(C)CCOc1cncc(N2CCCN(C)CC2)c1 | 212 |  | 
9 | CN(C)CCOc1cc(F)cc(N2CCCN(C)CC2)c1 | > 1000 |  | 
10 | CN(C)CCOc1cc(N2CCCN(C)CC2)cc(F)c1F | > 1000 |  | 
11 | CN(C)CCOc1cncc(N2CCNCC2)c1 | 145 | > 1000 | Ki [4]: > 1000 nM
12 | CN(C)CCOc1cc(F)cc(N2CCNCC2)c1 | > 1000 |  | 
13 | CN(C)CCOc1cc(N2CCNCC2)cc(F)c1F | > 1000 |  | 
14 | CN(C)CCOc1cncc(N2CCN(C)CC2)c1 | 66.8 | > 1000 | Ki [4]: > 1000 nM
15 | CN(C)CCOc1cc(F)cc(N2CCN(C)CC2)c1 | > 1000 |  | 
16 | CN(C)CCOc1cc(N2CCN(C)CC2)cc(F)c1F | > 1000 |  | 
17 | CN(C)CCOc1cncc(N2CCC2)c1 | 784 | > 1000 | 
18 | CN(C)CCOc1cncc(N2CCCC2)c1 | > 1000 | > 1000 | 
19 | CN(C)CCOc1cncc(N2CCCCC2)c1 | > 1000 | > 1000 | 
20 | CN(C)CCOc1cncc(N2CCOCC2)c1 | > 1000 |  | 
21 | CN(C)CCOc1cncc(N2CCC(O)CC2)c1 | 613 | > 1000 | 
22 | CN1CCCC1c1cncc(C2CCCN2C)c1 (stereo not given) |  |  | Ki [5]: 1180 nM
23 | CN(C)CCOc1cccnc1 |  |  | ED50 (Mus musculus [6]): 15 mg/kg
24 | CCN(CC)CCOc1ccc2c(c1)C(=O)c1cc(OCCN(CC)CC)ccc1-2 [TILORONE] |  |  | Ki [7]: 110 nM
